Data taken from patent US8207156B2, “Substituted pyrazoline compounds, their preparation and use as medicaments” (Laboratorios Del Dr. Esteve, S.A., priority 2005, dated 2012).

How the values were obtained:
CB1 receptor [1] = target: T1, CB1 receptor; test: In-vitro determination of affinity to CB1/CB2-receptors (radioligand [3H]-CP55940 binding); details: binding data per pharmacological methods part I, table does not say whether human transfected receptor or rat cerebellum
T1 construct: IC50 [nM]; radioligand [3H]-CP55940
Outline: (§1)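 Transfected human CB1/CB2 receptors were tested with [3H]-CP55940. In the modified Govaerts method, rat cerebellum membranes (100 µg protein) were incubated with 1 nM [3H]-CP55940 and compound for 1 h at 30 °C in Tris-HCl/MgCl2/EDTA/0.5% BSA, pH 7.4, with 10 µM HU-210 defining non-specific binding. Filter-bound radioactivity was counted in triplicate and analysed by non-linear regression.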

[2] = target: recombinant human cannabinoid 1 receptor (CB1) (Homo sapiens, UniProt P21554); test: In vitro determination of antagonism to CB1-receptor ([35S]GTPγS binding assay, CHO cell membranes); assay type: biochemical; details: compound at 1 μM against agonist WIN 55,212-2 (3 nM to 3 μM); effect of Rimonabant (1 μM) defined as 100%
recombinant human cannabinoid 1 receptor (CB1), sequence (P21554 whole entry): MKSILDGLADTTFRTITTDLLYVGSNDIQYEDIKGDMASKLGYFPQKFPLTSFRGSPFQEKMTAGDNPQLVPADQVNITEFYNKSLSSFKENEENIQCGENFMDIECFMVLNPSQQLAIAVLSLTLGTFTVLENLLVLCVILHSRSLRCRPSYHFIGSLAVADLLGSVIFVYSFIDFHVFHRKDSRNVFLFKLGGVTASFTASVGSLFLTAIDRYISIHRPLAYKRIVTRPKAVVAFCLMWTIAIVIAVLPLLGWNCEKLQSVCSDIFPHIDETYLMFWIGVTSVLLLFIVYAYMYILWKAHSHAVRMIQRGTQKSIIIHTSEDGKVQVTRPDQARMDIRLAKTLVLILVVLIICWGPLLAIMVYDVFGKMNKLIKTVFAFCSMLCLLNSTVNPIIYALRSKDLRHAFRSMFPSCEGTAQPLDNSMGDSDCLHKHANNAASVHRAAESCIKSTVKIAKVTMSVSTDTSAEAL
Outline: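 Membranes from CHO cells stably expressing human CB1 (15 μg protein/well) incubated 60 min at 30° C., pH 7.4, with 5 μM GDP, saponin and 0.5 nM [35S]GTPγS, compound at 1 μM final, with or without WIN 55,212-2 (3 nM–3 μM). Bound radioactivity via filtration; basal subtracted, antagonism scaled to WIN 55,212-2 ± Rimonabant (1 μM) window as 100%.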

CB1 receptor [3] = target: T2, CB1 receptor (UniProt P20272); test: In-vitro determination of affinity to CB1/CB2-receptors (radioligand [3H]-CP55940 binding)
T2 construct: other: compound at 10^−7 M; radioligand [3H]-CP55940; other: compound at 10^−8 M
Outline: as §1

Row | Structure (SMILES) | IC50 (CB1 receptor [1]) [nM] | Antagonism [%] [2] [%] | Inhibition [%], 10^−7 M (CB1 receptor [3]; compound at 10^−7 M) [%] | Inhibition [%], 10^−8 M (CB1 receptor [3]; compound at 10^−8 M) [%] | IC50 (CB1 receptor [1]; hydrochloride) [nM]
1 | CC1CCCCC1NC(=O)C1=NN(c2ccc(Cl)cc2Cl)C(c2ccc(Cl)cc2)C1 (centres unmarked) [Example 18, 5-(4-Chloro-phenyl)-1-(2,4-dichloro-phenyl)-4,5-dihydro-1H-pyrazole-3-carboxylic acid (2-methyl-cyclohexyl)-amide] | 25.1 | 78 | – | – | –
2 | O=C(C1=NN(c2ccc(Cl)cc2Cl)C(c2ccc(Cl)cc2)C1)N1CCC2CCCCC2C1 (centres unmarked) [Example 22, [5-(4-Chloro-phenyl)-1-(2,4-dichloro-phenyl)-4,5-dihydro-1H-pyrazol-3-yl]-(octahydro-isoquinolin-2-yl)-methanone] | 79.4 | 62 | – | – | –
3 | Cl.O=C(NN1CCc2ccccc21)C1=NN(c2ccc(Cl)cc2Cl)C(c2ccc(Br)cc2)C1 (centres unmarked) [Example 66, 5-(4-Bromo-phenyl)-1-(2,4-dichloro-phenyl)-4,5-dihydro-1H-pyrazole-3-carboxylic acid (2,3-dihydro-indol-1-yl)-amide hydrochloride] | 100 | 86 | – | – | –
4 | O=C(C1=NN(c2ccc(Cl)cc2Cl)C(c2ccc(Cl)cc2)C1)N1CCCc2ccccc21 (centres unmarked) [Example 81, [5-(4-Chloro-phenyl)-1-(2,4-dichloro-phenyl)-4,5-dihydro-1H-pyrazol-3-yl]-(3,4-dihydro-2H-quinolin-1-yl)-methanone] | 708 | 20 | – | – | –
5 | CC1Cc2ccccc2N1NC(=O)C1=NN(c2ccc(Cl)cc2Cl)C(c2ccc(Cl)cc2)C1 (centres unmarked) [Example 27, 5-(4-Chloro-phenyl)-1-(2,4-dichloro-phenyl)-4,5-dihydro-1H-pyrazole-3-carboxylic acid (2-methyl-2,3-dihydro-indol-1-yl)-amide] | 117 | 31 | 50.7 | 32.9 | –
6 | O=C(NC1CCCC1)C1=NN(c2ccc(Cl)cc2Cl)C(c2ccc(Cl)cc2)C1 (centres unmarked) [Example 37, 5-(4-Chloro-phenyl)-1-(2,4-dichloro-phenyl)-4,5-dihydro-1H-pyrazole-3-carboxylic acid cyclopentylamide] | 280 | 81 | – | – | –
7 | O=C(C1=NN(c2ccc(Cl)cc2Cl)C(c2ccc(Cl)cc2)C1)N1CC=CCC1 (centres unmarked) [Example 74, [5-(4-Chloro-phenyl)-1-(2,4-dichloro-phenyl)-4,5-dihydro-1H-pyrazol-3-yl]-(3,6-dihydro-2H-pyridin-1-yl)-methanone] | 794 | 44 | – | – | –
8 | O=C(NN1CCCCC1)C1=NN(c2ccc(Cl)cc2Cl)C(c2ccc(F)cc2)C1 (centres unmarked) [Example 23, 1-(2,4-Dichloro-phenyl)-5-(4-fluoro-phenyl)-4,5-dihydro-1H-pyrazole-3-carboxylic acid piperidin-1-ylamide] | 39.8 | 91 | – | – | –
9 | O=C(NN1CCN(C2CCCC2)CC1)C1=NN(c2ccc(Cl)cc2Cl)C(c2ccc(Br)cc2)C1 (centres unmarked) [Example 64, 5-(4-Bromo-phenyl)-1-(2,4-dichloro-phenyl)-4,5-dihydro-1H-pyrazole-3-carboxylic acid (4-cyclopentyl-piperazin-1-yl)-amide] | 562 | 63 | – | – | –
10 | CC1CCCC(NC(=O)C2=NN(c3ccc(Cl)cc3Cl)C(c3ccc(Cl)cc3)C2)C1 (centres unmarked) [Example 57, 5-(4-Chloro-phenyl)-1-(2,4-dichloro-phenyl)-4,5-dihydro-1H-pyrazole-3-carboxylic acid (3-methyl-cyclohexyl)-amide] | 39.8 | 81 | – | – | –
11 | O=C(NN1CC2CCCC2C1)C1=NN(c2ccc(Cl)cc2Cl)C(c2ccc(Br)cc2)C1 (centres unmarked) [Example 63, 5-(4-Bromo-phenyl)-1-(2,4-dichloro-phenyl)-4,5-dihydro-1H-pyrazole-3-carboxylic acid (hexahydro-cyclopenta[c]pyrrol-2-yl)-amide] | 25.1 | 119 | – | – | –
12 | CC1CCCC(C)N1NC(=O)C1=NN(c2ccc(Cl)cc2Cl)C(c2ccc(Cl)cc2)C1 (centres unmarked) [Example 12, 5-(4-Chloro-phenyl)-1-(2,4-dichloro-phenyl)-4,5-dihydro-1H-pyrazole-3-carboxylic acid (2,6-dimethyl-piperidin-1-yl)-amide] | 250 | 78 | – | – | –
13 | O=C(C1=NN(c2ccc(Cl)cc2Cl)C(c2ccc(Cl)cc2)C1)N1C=NCCC1 (centres unmarked) [Example 75, [5-(4-Chloro-phenyl)-1-(2,4-dichloro-phenyl)-4,5-dihydro-1H-pyrazol-3-yl]-(5,6-dihydro-4H-pyrimidin-1-yl)-methanone] | > 1000 | 42 | – | – | –
14 | COc1ccc(C2CC(C(=O)NN3CCCCC3)=NN2c2ccc(Cl)cc2Cl)cc1 (centres unmarked) [Example 106A, 1-(2,4-Dichloro-phenyl)-5-(4-methoxy-phenyl)-4,5-dihydro-1H-pyrazole-3-carboxylic acid piperidin-1-ylamide] | 20 | 112 | – | – | –
15 | CC1CCCC(C)N1NC(=O)C1=NN(c2ccc(Cl)cc2Cl)C(c2ccc(Cl)cc2)C1.Cl (centres unmarked) [Example 192, 5-(4-Chloro-phenyl)-1-(2,4-dichloro-phenyl)-4,5-dihydro-1H-pyrazole-3-carboxylic acid (2,6-dimethyl-piperidin-1-yl)-amide hydrochloride] | – | 63 | – | – | 501
